25 compounds from patent US11440913B2, “Aminoimidazopyridazines as kinase inhibitors” (BRISTOL-MYERS SQUIBB COMPANY, priority 2017, dated 2022) can be followed below.

Where a name gives a salt, the structure may show the parent alone.

Test [1] deals with MLKL phosphorylation in HT29-L23 human colorectal adenocarcinoma cells. Put plainly: MLKL Phosphorylation High-Content Assay. To be noted: Homo sapiens, 6 h, necroptosis induced with TNFα, SMAC mimetic and Z-VAD, read-out: pMLKL (IC50). Format: cell-based. An outline of the steps:
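HT29-L23 cells pretreated 30 min at 37 °C with compound (6.25 to 0.106 μM final), then necroptosis induced with TNFα 35 ng/mL, SMAC mimetic 700 nM and Z-VAD 140 nM for 6 h. Fixed cells immunostained for MLKL pS358 and imaged; IC50 and Ymax from 4-parameter logistic fit.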

In test [2] the target is His-GST-TVMV-hRIPK1(1-324) (Homo sapiens (Human), UniProt Q13546). The experiment in a line: RIPK1 HTRF Binding Assay. To be noted: HTRF binding, 1 h at rt; read-out: RIPK1 (IC50). An outline of the steps:
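HTRF probe-displacement binding: 1 nM His-GST-TVMV-hRIPK1(1-324) (baculovirus construct), 90.6 nM probe, 0.2 nM anti-GST-Tb in 20 mM HEPES, 10 mM MgCl2, 0.015% Brij-35, 4 mM DTT, 0.05 mg/mL BSA. Incubated 1 h at rt; FRET 520/495 nm ratio, inhibition relative to DMSO-only wells.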

His-GST-TVMV-hRIPK1(1-324), sequence (Q13546 1-324): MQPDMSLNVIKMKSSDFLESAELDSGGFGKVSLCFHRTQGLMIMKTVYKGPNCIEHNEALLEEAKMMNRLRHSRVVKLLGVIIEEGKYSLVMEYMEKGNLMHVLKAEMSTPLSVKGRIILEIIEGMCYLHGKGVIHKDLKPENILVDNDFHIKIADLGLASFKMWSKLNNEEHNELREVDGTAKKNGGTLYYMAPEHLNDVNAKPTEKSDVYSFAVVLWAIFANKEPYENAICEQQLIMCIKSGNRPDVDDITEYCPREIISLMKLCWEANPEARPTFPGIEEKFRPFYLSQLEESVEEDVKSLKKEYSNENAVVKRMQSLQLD

For `CC(=O)Nc1cn2nc(-c3cc(C(=O)NCc4cc(OC(F)(F)F)ccc4F)cnc3C)ccc2n1` [Example 234, 5-{2-acetamidoimidazo[1,2-b]pyridazin-6-yl}-N-{[2-fluoro-5-(trifluoromethoxy)phenyl]methyl}-6-methylpyridine-3-carboxamide], the IC50 (as a rule, the concentration at which inhibition is half-maximal) in test [1] came to 71 nM; in test [2], 46 nM.

Turning to `CC(=O)Nc1cn2nc(-c3cncc(C(=O)N[C@H](C)c4cc(OC(F)(F)F)ccc4F)c3)ccc2n1` [Example 235, 5-{2-acetamidoimidazo[1,2-b]pyridazin-6-yl}-N-[(1R)-1-[2-fluoro-5-(trifluoromethoxy)phenyl]ethyl]pyridine-3-carboxamide], the values for the IC50 in test [1] and in test [2] were 355 nM and 345 nM, respectively.

For the compound `CC(=O)Nc1cn2nc(-c3cncc(C(=O)NCc4cc(OCC5CC5)ccc4F)c3)ccc2n1` [Example 236, N-{[5-(cyclopropylmethoxy)-2-fluorophenyl]methyl}-5-{2-acetamidoimidazo[1,2-b]pyridazin-6-yl}pyridine-3-carboxamide], the figures for the IC50 in test [1] and in test [2] were 180 nM and 95 nM, respectively.

On to `CC(=O)Nc1cn2nc(-c3cncc(C(=O)NCc4cc(OC(F)(F)F)ccc4F)c3)ccc2n1` [Example 237, 5-{2-acetamidoimidazo[1,2-b]pyridazin-6-yl}-N-{[2-fluoro-5-(trifluoromethoxy)phenyl]methyl} pyridine-3-carboxamide], for which the IC50 in test [1] amounted to 77 nM; in test [2], 45 nM.

Regarding `CC(=O)Nc1cn2nc(-c3cncc(C(=O)NCCC(C)c4ccccc4)c3)ccc2n1` (centres unmarked) [Example 238, 5-{2-acetamidoimidazo[1,2-b]pyridazin-6-yl}-N-(3-phenylbutyl) pyridine-3-carboxamide], the IC50 in test [1] amounted to 356 nM; in test [2] it was 41 nM.

In the case of `CC(=O)Nc1cn2nc(-c3cncc(C(=O)NCc4ccccc4OCC4CC4)c3)ccc2n1` [Example 239, N-{[2-(cyclopropylmethoxy)phenyl]methyl}-5-{2-acetamidoimidazo [1,2-b]pyridazin-6-yl}pyridine-3-carboxamide], the IC50 in test [1] amounted to 158 nM; in test [2], 13 nM.

`CC(=O)Nc1cn2nc(-c3cncc(C(=O)NCc4c(F)cccc4OC4CCCC4)c3)ccc2n1` [Example 240, N-{[2-(cyclopentyloxy)-6-fluorophenyl]methyl}-5-{2-acetamidoimidazo[1,2-b]pyridazin-6-yl}pyridine-3-carboxamide]: the IC50 in test [1] was 8 nM; in test [2] it was 5 nM.

For the compound `CC(=O)Nc1cn2nc(-c3cncc(C(=O)NCc4ncccc4OC4CCCC4)c3)ccc2n1` [Example 241, N-{[3-(cyclopentyloxy)pyridin-2-yl]methyl}-5-{2-acetamidoimidazo [1,2-b]pyridazin-6-yl}pyridine-3-carboxamide], the IC50 turned out to be 277 nM in test [1] and 35 nM in test [2].

As to `CC(=O)Nc1cn2nc(-c3cncc(C(=O)NCc4cc(F)ccc4OC4CCCC4)c3)ccc2n1` [Example 242, N-{[2-(cyclopentyloxy)-5-fluorophenyl]methyl}-5-{2-acetamidoimidazo[1,2-b]pyridazin-6-yl}pyridine-3-carboxamide], the IC50 in test [1] amounted to 11 nM; in test [2], 4 nM.

For `[2H]C([2H])(Oc1c(F)cc(F)cc1CNC(=O)c1cc(-c2ccc3nc(NC(=O)CC)cn3n2)cnc1OC)C1CC1` [Example 243, N-({2-[cyclopropyl(deutero)methoxy]-3,5-difluorophenyl}methyl)-2-methoxy-5-{2-propanamidoimidazo[1,2-b]pyridazin-6-yl}pyridine-3-carboxamide], the IC50 is 3 nM in test [1] and 2 nM in test [2].

Take `[2H]C([2H])(NC(=O)c1cc(-c2ccc3nc(NC(=O)CC)cn3n2)cnc1OC)c1cc(OC(F)(F)F)ccc1F` [Example 244, N-{[2-fluoro-5-(trifluoromethoxy)phenyl](deutero)methyl}-2-methoxy-5-{2-propanamidoimidazo[1,2-b]pyridazin-6-yl}pyridine-3-carboxamide]: the IC50 in test [1] is 4 nM; in test [2], 257 nM.

On to `CCC(=O)Nc1cn2nc(-c3cnc(OC)c(C(=O)N[C@H](C)c4cc(OC(F)(F)F)ccc4F)c3)ccc2n1` [Example 245, N-[(1R)-1-[2-fluoro-5-(trifluoromethoxy)phenyl]ethyl]-2-methoxy-5-{2-propanamidoimidazo[1,2-b]pyridazin-6-yl}pyridine-3-carboxamide], for which the IC50 in test [1] worked out at 132 nM; in test [2], 486 nM.

Turning to `CCC(=O)Nc1cn2nc(-c3cnc(OC)c(C(=O)NCC[C@H](O)c4ccc(Cl)cc4)c3)ccc2n1` [Example 246, N-[(3S)-3-(4-chlorophenyl)-3-hydroxypropyl]-2-methoxy-5-{2-propanamidoimidazo[1,2-b]pyridazin-6-yl}pyridine-3-carboxamide], the IC50 was determined as 105 nM in test [1] and 92 nM in test [2].

For `CCC(=O)Nc1cn2nc(-c3cnc(OC)c(C(=O)NCc4cc(F)cc(F)c4OC4CCOCC4)c3)ccc2n1` [Example 247, N-{[3,5-difluoro-2-(oxan-4-yloxy)phenyl]methyl}-2-methoxy-5-{2-propanamidoimidazo[1,2-b]pyridazin-6-yl}pyridine-3-carboxamide], the IC50 in test [1] and in test [2] was 2 nM each time.

On to `CCC(=O)Nc1cn2nc(-c3cnc(OC)c(C(=O)NCc4ccccc4OC(F)(F)F)c3)ccc2n1` [Example 248, 2-methoxy-5-{2-propanamidoimidazo[1,2-b]pyridazin-6-yl}-N-{[2-(trifluoromethoxy)phenyl]methyl}pyridine-3-carboxamide, TFA], for which the results for the IC50 in test [1] and in test [2] were 55 nM and 13 nM, respectively.

Take `CCC(=O)Nc1cn2nc(-c3cnc(OC)c(C(=O)NCc4ccc(F)c(F)c4OCC4CC4)c3)ccc2n1` [Example 249, N-{[2-(cyclopropylmethoxy)-3,4-difluorophenyl]methyl}-2-methoxy-5-{2-propanamidoimidazo[1,2-b]pyridazin-6-yl}pyridine-3-carboxamide]: the IC50 in test [1] turned out to be 132 nM; in test [2], 29 nM.

Consider `CCC(=O)Nc1cn2nc(-c3cnc(OC)c(C(=O)NCc4cc(OCC5CC5)ccc4F)c3)ccc2n1` [Example 250, N-{[5-(cyclopropylmethoxy)-2-fluorophenyl]methyl}-2-methoxy-5-{2-propanamidoimidazo[1,2-b]pyridazin-6-yl}pyridine-3-carboxamide], for which the IC50 in test [1] worked out at 61 nM; in test [2] it was 18 nM.

As to `CC(=O)Nc1nc2ccc(-c3cnc(C)c(C(=O)NCc4cccc(OC(F)(F)F)c4)c3)nn2c1C` [Example 251, 5-{2-acetamido-3-methylimidazo[1,2-b]pyridazin-6-yl}-2-methyl-N-{[3-(trifluoromethoxy)phenyl]methyl}pyridine-3-carboxamide], the IC50 amounted to 305 nM in test [1] and 53 nM in test [2].

Consider `CC(=O)Nc1nc2ccc(-c3cnc(C)c(C(=O)NCc4cc(C(F)(F)F)ccc4F)c3)nn2c1C` [Example 252, 5-{2-acetamido-3-methylimidazo[1,2-b]pyridazin-6-yl}-N-{[2-fluoro-5-(trifluoromethyl)phenyl]methyl}-2-methylpyridine-3-carboxamide], for which the values for the IC50 in test [1] and in test [2] were 133 nM and 27 nM, respectively.

`CC(=O)Nc1nc2ccc(-c3cnc(C)c(C(=O)NCc4cc(OC(F)(F)F)ccc4F)c3)nn2c1C` [Example 253, 5-{2-acetamido-3-methylimidazo[1,2-b]pyridazin-6-yl}-N-{[2-fluoro-5-(trifluoromethoxy)phenyl]methyl}-2-methylpyridine-3-carboxamide]: the figures for the IC50 in test [1] and in test [2] were 53 nM and 14 nM, respectively.

As for `COc1ncc(-c2ccc3nc(NC(C)=O)c(C)n3n2)cc1C(=O)NCc1cc(C(F)(F)F)ccc1F` [Example 254, 5-{2-acetamido-3-methylimidazo[1,2-b]pyridazin-6-yl}-N-{[2-fluoro-5-(trifluoromethyl)phenyl]methyl}-2-methoxypyridine-3-carboxamide], the IC50 is 66 nM in test [1] and 101 nM in test [2].

On to `COc1ncc(-c2ccc3nc(NC(C)=O)c(C)n3n2)cc1C(=O)NCc1ccc(F)c(OC(F)(F)F)c1` [Example 255, 5-{2-acetamido-3-methylimidazo[1,2-b]pyridazin-6-yl}-N-{[4-fluoro-3-(trifluoromethoxy)phenyl]methyl}-2-methoxypyridine-3-carboxamide], for which the half-inhibitory concentration (IC50) in test [1] is 263 nM; in test [2], 87 nM.

As for `COc1ncc(-c2ccc3nc(NC(C)=O)c(C)n3n2)cc1C(=O)NCCC(C)c1ccccc1` (centres unmarked) [Example 256, 5-{2-acetamido-3-methylimidazo[1,2-b]pyridazin-6-yl}-2-methoxy-N-(3-phenylbutyl)pyridine-3-carboxamide, TFA], the results for the concentration for half-maximal inhibition (IC50) in test [1] and in test [2] were 27 nM and 9 nM, respectively.

Regarding `COc1ncc(-c2ccc3nc(NC(C)=O)c(C)n3n2)cc1C(=O)NCc1cccc(OC(F)(F)F)c1` [Example 257, 5-{2-acetamido-3-methylimidazo[1,2-b]pyridazin-6-yl}-2-methoxy-N-{[3-(trifluoromethoxy)phenyl]methyl}pyridine-3-carboxamide, TFA], the IC50 worked out at 69 nM in test [1] and 61 nM in test [2].

Take `COc1ncc(-c2ccc3nc(NC(C)=O)c(C)n3n2)cc1C(=O)NCc1ccccc1OC(F)(F)F` [Example 258, 5-{2-acetamido-3-methylimidazo[1,2-b]pyridazin-6-yl}-2-methoxy-N-{[2-(trifluoromethoxy)phenyl]methyl}pyridine-3-carboxamide, TFA]: the IC50 in test [1] is 57 nM; in test [2], 72 nM.
